From patent US8609675B2, “Fused Tricyclic Compounds as novel mTOR inhibitors” (Merck Sharp & Dohme Corp., priority 2009, dated 2013)

Target: human mTOR enzyme (Homo sapiens, UniProt P42345)
Experiment: mTOR Kinase Assay
Type: biochemical
Settings: 5 μM ATP, 0.1 μM GST-S6K, rated A, B or C
Method: The mTOR assay buffer contained 10 mM hepes (pH 7.4), 50 mM NaCl, 100 μg/ml BSA, 50 mM β-glycerophosphate, 10 mM MnCl2 and 0.5 mM DTT. 20 ng of human mTOR enzyme was preincubated with the compound for 10 minutes. 5 μM ATP and 0.1 μM GST-S6K was added. The reaction was incubated for one hour at 30° C. Anti phospho p70-S6K (about 1.7 ng/well) and anti GST-XL665 (1:1 Ratio with the substrate GST-56K) were added after incubating. The plates were read at least 2 hours after adding the anti phospho p70-S6K and the anti GST-XL665.
IC50 DETERMINATIONS: Dose-response curves were plotted from the inhibition data generated, each in duplicate, from 8 point serial dilutions of inhibitory compounds. Concentration of compound was plotted against % kinase activity, calculated by CPM of treated samples divided by CPM of untreated samples. To generate IC50 values, the dose-response curves were then fitted to a standard sigmoidal curve and IC50 values were derived by nonlinear regression analysis.

| SMILES | IC50 |
| --- | --- |
| Cc1n[nH]c2c1c(CC1CCC(C)(C(=O)O)CC1)nc1c(-c3ccc(-c4cccnc4)nc3)cnn12 (stereo not shown) [Compound 2] | 0.001 to 0.01 µM |
| O=S1(=O)CCN(c2nc3c(-c4cnc5ccccc5c4)cnn3c3[nH]ccc23)CC1 [Compound 13] | 0.001 to 0.01 µM |
| Cc1n[nH]c2c1c(CC1CCC(C(=O)O)CC1)nc1c(-c3ccc(-c4cnn(C)c4)nc3)cnn12 (stereo not shown) [Compound 6, 4-((3-methyl-6-(6-(1-methyl-1H-pyrazol-4-yl)pyridin-3-yl)-1H-dipyrazolo[1,5-a:4′,3′-e]pyrimidin-4-yl)methyl)cyclohexanecarboxylic acid] | 0.001 to 0.01 µM |
| C[C@@H](O)C(=O)N1CCC(c2nc3c(-c4ccc(-c5ccccc5)nc4)cnn3c3[nH]cc(Cl)c23)CC1 [Compound 34, (R)-1-(4-(6-chloro-3-(6-phenylpyridin-3-yl)-8H-pyrazolo[1,5-a]pyrrolo[3,2-e]pyrimidin-5-yl)piperidin-1-yl)-2-hydroxypropan-1-one] | 0.001 to 0.01 µM |
| O=C(O)[C@H]1CC[C@H](c2nc3c(-c4ccc(-c5ccccc5)nc4)cnn3c3[nH]ccc32)CC1 [Compound 23, (trans)-4-(3-(6-phenylpyridin-3-yl)-8H-pyrazolo[1,5-a]pyrrolo[3,2-e]pyrimidin-5-yl)cyclohexanecarboxylic acid] | 0.001 to 0.01 µM |
| Cc1n[nH]c2c1c(CC1CCC(C)(C(=O)O)CC1)nc1c(-c3ccc(-c4cnn(C)c4)nc3)cnn12 (stereo not shown) [Compound 4] | 0.001 to 0.01 µM |
| Cc1n[nH]c2c1c(CC1CCC(C)(C(=O)O)CC1)nc1c(-c3ccc(-c4ccccc4)nc3)cnn12 (stereo not shown) [Compound 3, 1-methyl-4-((3-methyl-6-(6-phenylpyridin-3-yl)-1H-dipyrazolo[1,5-a:4′,3′-e]pyrimidin-4-yl)methyl)cyclohexanecarboxylic acid] | 0.001 to 0.01 µM |
| O=C([C@H](O)CO)N1CCC(c2nc3c(-c4ccc(-c5ccccc5)nc4)cnn3c3[nH]ccc23)CC1 [Compound 24, (R)-2,3-dihydroxy-1-(4-(3-(6-phenylpyridin-3-yl)-8H-pyrazolo[1,5-a]pyrrolo[3,2-e]pyrimidin-5-yl)piperidin-1-yl)propan-1-one] | 0.001 to 0.01 µM |
| C[C@@H](O)C(=O)N1CCC(Cc2nc3c(-c4ccc(-c5ccccc5)nc4)cnn3c3[nH]ccc23)CC1 [Compound 33, (R)-2-hydroxy-1-(4-((3-(6-phenylpyridin-3-yl)-8H-pyrazolo[1,5-a]pyrrolo[3,2-e]pyrimidin-5-yl)methyl)piperidin-1-yl)propan-1-one] | 0.01 to 0.1 µM |
| O=C(O)CC1CCC(c2nc3c(-c4ccc(-c5ccccc5)nc4)cnn3c3[nH]ccc23)CC1 (mixture of isomers) [Compound 29] | < 0.001 µM |
| CC1(C(=O)O)CC=C(c2nc3c(-c4ccc(-c5ccccc5)nc4)cnn3c3[nH]ccc23)CC1 (stereo not shown) [Compound 28] | 0.001 to 0.01 µM |
| C[C@@H](O)C(=O)N1CCC(Oc2nc3c(-c4ccc(-c5ccccc5)nc4)cnn3c3[nH]ccc23)CC1 [Compound 35, (R)-2-hydroxy-1-(4-(3-(6-phenylpyridin-3-yl)-8H-pyrazolo[1,5-a]pyrrolo[3,2-e]pyrimidin-5-yloxy)piperidin-1-yl)propan-1-one] | 0.01 to 0.1 µM |
| CS(=O)(=O)N1CCC(c2nc3c(-c4ccc(-c5ccccc5)nc4)cnn3c3[nH]ccc23)C1 (stereo not shown) [Compound 27, 5-(1-(methylsulfonyl)pyrrolidin-3-yl)-3-(6-phenylpyridin-3-yl)-8H-pyrazolo[1,5-a]pyrrolo[3,2-e]pyrimidine] | 0.001 to 0.01 µM |
| Cc1n[nH]c2c1c(CC1CCC(C(=O)O)CC1)nc1c(-c3ccc(-c4ccccc4)nc3)cnn12 (stereo not shown) [Compound 5, 4-((3-methyl-6-(6-phenylpyridin-3-yl)-1H-dipyrazolo[1,5-a:4′,3′-e]pyrimidin-4-yl)methyl)cyclohexanecarboxylic acid] | 0.001 to 0.01 µM |
| C[C@@H](O)C(=O)N1CCC(c2nc3c(-c4ccc(-c5ccccc5)nc4)cnn3c3[nH]ccc23)CC1 [Compound 25, (R)-2-hydroxy-1-(4-(3-(6-phenylpyridin-3-yl)-8H-pyrazolo[1,5-a]pyrrolo[3,2-e]pyrimidin-5-yl)piperidin-1-yl)propan-1-one] | 0.001 to 0.01 µM |

More lines, now with the values ahead:

| IC50 | SMILES |
| --- | --- |
| 0.001 to 0.01 µM | O=S1(=O)CCC(c2nc3c(-c4cnc5ccc(F)cc5c4)cnn3c3[nH]ccc23)CC1 [Compound 12] |
| < 0.001 µM | Cc1n[nH]c2c1c([C@H]1CC[C@H](C(=O)O)CC1)nc1c(-c3ccc(-c4ccccc4)nc3)cnn12 [Compound 8, (1R,4R)-4-(3-methyl-6-(6-phenylpyridin-3-yl)-1H-dipyrazolo[1,5-a:4′,3′-e]pyrimidin-4-yl)cyclohexanecarboxylic acid] |
| 0.001 to 0.01 µM | O=S1(=O)CCC(c2nc3c(-c4ccc(-c5ccccc5)nc4)cnn3c3[nH]cc(Cl)c23)CC1 [Compound 32] |
| 0.01 to 0.1 µM | O=S1(=O)CCC(c2nc3c(-c4ccc(-c5cccnc5)nc4)cnn3c3[nH]ncc23)CC1 [Compound 10] |
| < 0.001 µM | Cc1n[nH]c2c1c(C1CCC(CC(=O)O)CC1)nc1c(-c3ccc(-c4ccccc4)nc3)cnn12 (stereo not shown) [Compound 22, 2-(4-(3-methyl-6-(6-phenylpyridin-3-yl)-1H-dipyrazolo[1,5-a:4′,3′-e]pyrimidin-4-yl)cyclohexyl)acetic acid] |
| 0.01 to 0.1 µM | Cc1n[nH]c2c1c(C1CCS(=O)(=O)CC1)nc1c(-c3cnc4ccccc4c3)cnn12 [Compound 1, 3-(Quinolin-3-yl)-5-(1,1-dioxo-tetrahydro-2H-thiopyran-4-yl)-6-methyl-dipyrazolo[1,5-a:4′,3′-e]pyrimidine] |
| 0.001 to 0.01 µM | Cc1n[nH]c2c1c(C1CCS(=O)(=O)CC1)nc1c(-c3ccc(-c4ccccc4)nc3)cnn12 [Compound 20] |
| 0.01 to 0.1 µM | O=S1(=O)CCC(c2nc3c(-c4cnc5ccc(F)cc5c4)cnn3c3[nH]ncc23)CC1 [Compound 16] |
| 0.01 to 0.1 µM | Cc1n[nH]c2c1c([C@H]1CC[C@H](C(=O)O)CC1)nc1c(-c3cnc4ccccc4c3)cnn12 [Compound 7] |
| 0.001 to 0.01 µM | Cc1n[nH]c2c1c(C1CCS(=O)(=O)CC1)nc1c(-c3ccc(-c4cccnc4)nc3)cnn12 [Compound 19] |
| 0.001 to 0.01 µM | Cc1n[nH]c2c1c(C1CCN(C(=O)[C@@H](C)O)CC1)nc1c(-c3ccc(-c4ccccc4)nc3)cnn12 [Compound 30, (R)-2-hydroxy-1-(4-(3-methyl-6-(6-phenylpyridin-3-yl)-1H-dipyrazolo[1,5-a:4′,3′-e]pyrimidin-4-yl)piperidin-1-yl)propan-1-one] |
| 0.001 to 0.01 µM | O=S1(=O)CCC(c2nc3c(-c4ccc(-c5ccccc5)nc4)cnn3c3[nH]ccc23)CC1 [Compound 9] |
| 0.001 to 0.01 µM | O=S1(=O)CCC(c2nc3c(-c4ccc(-c5ccccc5)nc4)cnn3c3[nH]ncc23)CC1 [Compound 15] |
| 0.001 to 0.01 µM | Cc1n[nH]c2c1c(C1CCS(=O)(=O)CC1)nc1c(-c3cnc4ccccc4c3)cnn12 [Compound 18] |
| 0.001 to 0.01 µM | Cc1n[nH]c2c1c(CNC1CCOCC1)nc1c(-c3cnc4ccccc4c3)cnn12 [Compound 26, N-((3-methyl-6-(quinolin-3-yl)-1H-dipyrazolo[1,5-a:4′,3′-e]pyrimidin-4-yl)methyl)tetrahydro-2H-pyran-4-amine] |
| 0.001 to 0.01 µM | CCc1n[nH]c2c1c(N1CCS(=O)(=O)CC1)nc1c(-c3cnc4ccccc4c3)cnn12 [Compound 17] |
| 0.001 to 0.01 µM | O=S1(=O)CCC(c2nc3c(-c4cnc5ccccc5c4)cnn3c3[nH]ccc23)CC1 [Compound 11] |
| 0.001 to 0.01 µM | Cc1n[nH]c2c1c(C1CCS(=O)(=O)CC1)nc1c(-c3cnc4ccc(F)cc4c3)cnn12 [Compound 21] |
| 0.001 to 0.01 µM | O=S1(=O)CCC(c2nc3c(-c4cnc5ccc(F)cc5c4)cnn3c3[nH]cc(Cl)c23)CC1 [Compound 31] |
